Here are results for twelve molecules from PubChem BioAssay (NCI).

Among the test systems are NCI-H226 lung; UACC-62 melanoma; SNB-19 CNS; CCRF-CEM leukemia; HOP-92 NSCLC; A549 NSCLC; SK-MEL-28 melanoma; HT29 colon; IGROV1 ovarian; MDA-N; CAKI-1 renal; HCT-116 colon.
Common to all, as to test: NCI-60 cell line screen, 48 h

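Dose response: 5 concentrations. Exposure: 48 h. Format: 96-well plates. Endpoint: linear interpolation; highest concentration if not reached. At the TGI there is no net growth.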

For `COC(=O)N1CC[C@@H]2CCC=C(c3cccc4c3OCO4)[C@@H]21`, the TGI in the assay on NCI-H226 lung, in the assay on UACC-62 melanoma, in the assay with SNB-19 CNS, in the assay on CCRF-CEM leukemia, with HOP-92 NSCLC and with A549 NSCLC was above 100 µM throughout. Besides, the TGI in the assay with SK-MEL-28 melanoma, in the assay with HT29 colon, with IGROV1 ovarian, in the assay with MDA-N, in the assay with CAKI-1 renal and in the assay on HCT-116 colon was above 100 µM in each case.
Consider `c1ccc(Cc2cccc3cc(-c4ccc(-c5ccccc5)cc4)[nH]c23)cc1`, for which the TGI with NCI-H226 lung, in the assay on UACC-62 melanoma, with SNB-19 CNS, in the assay on CCRF-CEM leukemia, with HOP-92 NSCLC and with A549 NSCLC was above 100 µM each time. The TGI with SK-MEL-28 melanoma, with HT29 colon, in the assay on IGROV1 ovarian, with MDA-N, in the assay with CAKI-1 renal and in the assay with HCT-116 colon was above 100 µM each time.
Take `O=C(Nc1ccc(Cl)cc1)c1cc(S(=O)(=O)Nc2n[nH]c(=O)[nH]2)c(SSc2cc(Cl)c(C(=O)Nc3ccc(Cl)cc3)cc2S(=O)(=O)Nc2n[nH]c(=O)[nH]2)cc1Cl`: the TGI in the assay on NCI-H226 lung, in the assay with UACC-62 melanoma, in the assay with SNB-19 CNS, in the assay with CCRF-CEM leukemia, with HOP-92 NSCLC and in the assay on A549 NSCLC was above 100 µM throughout. In addition, the TGI in the assay on SK-MEL-28 melanoma, in the assay on HT29 colon, with IGROV1 ovarian, in the assay on MDA-N, in the assay on CAKI-1 renal and with HCT-116 colon was above 100 µM in each case.
For the molecule `C/C(Cl)=N\OC(=O)Nc1ccc([N+](=O)[O-])cc1`, the TGI is above 100 µM in the assay with NCI-H226 lung; 48.6 µM in the assay on UACC-62 melanoma; 33.1 µM in the assay on SNB-19 CNS; above 100 µM in the assay with CCRF-CEM leukemia; 5.65 µM in the assay with HOP-92 NSCLC; 47.5 µM with A549 NSCLC. The TGI with SK-MEL-28 melanoma came out at 31.5 µM; in the assay with HT29 colon, 38.7 µM; in the assay on IGROV1 ovarian, 38.5 µM; in the assay on MDA-N it was 25.1 µM; in the assay on CAKI-1 renal it was 9.79 µM; with HCT-116 colon, 22.2 µM.
Regarding `O=c1oc2ncccc2n1Cc1ccc([N+](=O)[O-])cc1`, the TGI in the assay on NCI-H226 lung, in the assay on UACC-62 melanoma, in the assay on CCRF-CEM leukemia, in the assay with HOP-92 NSCLC, with A549 NSCLC and in the assay on SK-MEL-28 melanoma was above 100 µM throughout. Moreover, the TGI with HT29 colon, in the assay on IGROV1 ovarian, in the assay with MDA-N, in the assay on CAKI-1 renal and with HCT-116 colon was above 100 µM in each case.
Take `CCOC(=O)C(SCCO)C(C(=O)OCC)n1ccc(N)nc1=O` (stereo not drawn): the TGI in the assay with NCI-H226 lung, in the assay on UACC-62 melanoma, with SNB-19 CNS, with CCRF-CEM leukemia, in the assay on HOP-92 NSCLC and in the assay on A549 NSCLC was above 100 µM in each case. In addition, the TGI with SK-MEL-28 melanoma, with HT29 colon, in the assay with IGROV1 ovarian, with MDA-N, with CAKI-1 renal and in the assay on HCT-116 colon was above 100 µM in each case.
As to `C/C(CC(O)(C(F)(F)F)C(F)(F)F)=N\N`, the TGI in the assay with NCI-H226 lung, in the assay on UACC-62 melanoma, in the assay with SNB-19 CNS, with CCRF-CEM leukemia, in the assay on HOP-92 NSCLC and in the assay on A549 NSCLC was above 10 µM in each case. The TGI in the assay with SK-MEL-28 melanoma, in the assay on HT29 colon, in the assay on IGROV1 ovarian, in the assay on MDA-N, with CAKI-1 renal and in the assay with HCT-116 colon was above 10 µM each time.
Consider `CCOC(=O)/C(C(=S)NC)=C(/N)N1CCCC1`, for which the TGI in the assay on NCI-H226 lung, in the assay on UACC-62 melanoma, in the assay with SNB-19 CNS, with CCRF-CEM leukemia, with HOP-92 NSCLC and with A549 NSCLC was above 100 µM each time. For the same molecule, the TGI with SK-MEL-28 melanoma, in the assay with HT29 colon, in the assay on IGROV1 ovarian, in the assay on MDA-N, in the assay on CAKI-1 renal and in the assay on HCT-116 colon was above 100 µM in each case.
With `C=CCCCCOC1C=CC(OC(C)=O)C(COC(C)=O)O1` (stereo not drawn), the TGI with NCI-H226 lung, with UACC-62 melanoma, with SNB-19 CNS, with CCRF-CEM leukemia, with HOP-92 NSCLC and in the assay with A549 NSCLC was above 100 µM each time. Further, the TGI in the assay on SK-MEL-28 melanoma, with HT29 colon, in the assay with IGROV1 ovarian, with MDA-N, in the assay with CAKI-1 renal and in the assay with HCT-116 colon was above 100 µM in each case.
Take `O=C(CSc1nc2ccc(I)cc2c(=O)n1Cc1ccccc1)N/N=C/c1ccccc1`: the TGI is 95.9 µM in the assay on NCI-H226 lung; above 100 µM with UACC-62 melanoma; 49.1 µM in the assay on SNB-19 CNS; above 100 µM with CCRF-CEM leukemia; 34 µM in the assay with HOP-92 NSCLC; above 100 µM in the assay on A549 NSCLC. The TGI in the assay with SK-MEL-28 melanoma was above 100 µM; in the assay with HT29 colon, above 100 µM; in the assay on IGROV1 ovarian it was 36.1 µM; in the assay with MDA-N, above 100 µM; with CAKI-1 renal it was 23 µM; in the assay on HCT-116 colon, above 100 µM.
Consider `O=C(CC(=O)c1ccncc1)c1ccccc1`, for which the TGI in the assay on NCI-H226 lung was above 100 µM; with UACC-62 melanoma, above 100 µM; with SNB-19 CNS, above 100 µM; in the assay with CCRF-CEM leukemia it was above 41.8 µM; in the assay on HOP-92 NSCLC, above 100 µM; in the assay on A549 NSCLC, above 100 µM. Also, the TGI in the assay on SK-MEL-28 melanoma, with HT29 colon, in the assay on IGROV1 ovarian, in the assay with MDA-N, in the assay on CAKI-1 renal and in the assay on HCT-116 colon was above 100 µM throughout.
On to `CCN(CC)CCN1c2ccccc2Sc2ccc3ccccc3c21`, for which the TGI in the assay with NCI-H226 lung is 19.1 µM; with UACC-62 melanoma it was 22 µM; in the assay on SNB-19 CNS, 29.6 µM; with CCRF-CEM leukemia, 15 µM; in the assay on HOP-92 NSCLC it was 12.8 µM; in the assay with A549 NSCLC it was 27.8 µM. Moreover, the TGI in the assay with SK-MEL-28 melanoma came to 20.2 µM; with HT29 colon it was 12.3 µM; with IGROV1 ovarian it was 24.5 µM; in the assay with MDA-N, 25.3 µM; with CAKI-1 renal, 22.7 µM; in the assay with HCT-116 colon it was 22.9 µM.
